Assays:
[1] = Single dose rat PK, subcutaneous aqueous suspension, plasma EFdA by LC-MS/MS; conditions: SC; for Cmax compared with EFdA itself / time with plasma levels of EFdA above LLOQ: single dose, 10 mg/kg equivalent of EFdA, 4 mg/mL, 0.5% CMC-Na/0.5% TWEEN-80
Method: Animals (Male SD rats ˜200-250 g and Male rhesus macaques ˜2-3 kg) were obtained from an approved vendor (SLAC Laboratory Animal Co. Ltd., Shanghai, China and/or Topgene Biotechnology, Wuhan city, Hubei Province, China).
Animals were fasted at least 12 hours prior to the administration. All animals had access to Certified Rodent and non-Rodent Diet (Catalog #M01-F, SLAC Laboratory Animal Cl. Ltd., Shanghai, China) ad libitum 4 hours post dosing.
The formulations were prepared on the day of dosing. Animals were dosed within four hours after the formulation is prepared. Two 20 μL aliquots of each formulation were removed from each of the formulation solutions, transferred into 1.5 mL of polypropylene microcentrifuge tubes and run dose validation by LC/UV or LC-MS/MS.
For SC dosing, the dose formulation was administered via subcutaneous injection following facility SOPs.
Approximately 200 μL blood was collected from saphenous vein at each time point for rats and 0.5 mL for rhesus macaques. All blood samples were transferred into microcentrifuge tubes containing 4 μL of K2EDTA (0.5M) as anti-coagulant and placed on wet ice until processed for plasma.
Blood: Blood samples were processed for plasma by centrifugation at approximately 4° C., 3000 g 15 min within half an hour of collection. Plasma samples was stored in polypropylene tubes, quick frozen over dry ice and kept at −70±10° C. until LC/MS/MS analysis.
If the carryover couldn't meet the criteria, then the percent of carryover should be estimated following in-house bioanalytical SOP.
Plasma concentration versus time data was analyzed by non-compartmental approaches using the Phoenix WINNONLIN 6.3 software program. Cmax, Tmax, T1/2, AUC(0-t), AUC(0-inf), MRT(0-t), MRT(0-inf), % F and graphs of plasma concentration versus time profile were reported.
Several prodrugs including EFdA (1) as a control were subjected to a single dose rat PK studies via subcutaneous route of administration. All were injected with equivalent doses of 10 mg/kg and concentration of 4 mg/mL of EFdA as an aqueous suspension formulation derived from 0.5% CMC-Na and 0.5% TWEEN-80.

[2] = Aqueous solubility (pH 7.4); conditions: aqueous medium at pH 7.4, pH 7.4, aqueous buffer
[3] = Single dose rhesus macaque PK, subcutaneous aqueous suspension, plasma EFdA by LC-MS/MS
Method: The aqueous suspension formulations were derived from 0.25;% CMC-Na and 0.1;%/0.5% TWEEN-80 with equivalent concentration of 116 mg/mL and 319 mg/mL of EFdA for prodrug 5 and EFdA respectively.

[4] = male, rhesus monkey, plasma, sc, 50 mg/kg

| Compound | Cmax compared with EFdA itself [1] | time with plasma levels of EFdA above LLOQ [1] | solubility [2] | time with plasma levels of EFdA above LLOQ ([3]; rhesus macaque, SC, single dose, 50 mg/kg equivalent of EFdA, 116 mg/mL) | half life and mean residence life compared with EFdA ([1]; 100 mg/kg equivalent dose, 120 mg/mL (prodrug 3) vs 319 mg/mL (EFdA)) | AUC(0-inf) [3, 4] | half-life [3, 4] |
| --- | --- | --- | --- | --- | --- | --- | --- |
| C#C[C@]1(COC(=O)Cc2ccccc2)O[C@@H](n2cnc3c(N)nc(F)nc32)C[C@@H]1OC(=O)Cc1ccccc1 [Compound 5, (2R,3S,5R)-5-(6-amino-2-fluoro-9H-purin-9-yl)-2-ethynyl-2-((2-phenylacetoxy)methyl) tetrahydrofuran-3-yl 2-phenylacetate] | much lower than EFdA itself | more than a week | < 2 µg/mL | more than a month |  |  |  |
| C#C[C@]1(COC(=O)C(CC)CC)O[C@@H](n2cnc3c(N)nc(F)nc32)C[C@@H]1OC(=O)C(CC)CC [Compound 3, (2R,3S,5R)-5-(6-amino-2-fluoro-9H-purin-9-yl)-2-(((2-ethylbutanoyl)oxy)methyl)-2-ethynyltetrahydrofuran-3-yl 2-ethylbutanoate] | much lower than EFdA itself | more than a week | < 2 µg/mL |  | Enhanced |  |  |
| C#C[C@]1(COC(=O)C(C)C)O[C@@H](n2cnc3c(N)nc(F)nc32)C[C@@H]1OC(=O)C(C)C [Compound 2, (2R,3S,5R)-5-(6-amino-2-fluoro-9H-purin-9-yl)-2-ethynyl-2-((isobutyryloxy)methyl) tetrahydrofuran-3-yl isobutyrate] | much lower than EFdA itself | more than a week |  |  |  |  |  |
| C#C[C@]1(CO)O[C@@H](n2cnc3c(N)nc(F)nc32)C[C@@H]1O [Compound 1, (2R,3S,5R)-5-(6-amino-2-fluoro-9H-purin-9-yl)-2-ethynyl-2-(hydroxymethyl) tetrahydrofuran-3-ol] |  |  |  |  |  | 135 ± 22.7 µM·h | 69 ± 14 h |
| C#C[C@]1(COC(=O)CN)O[C@@H](n2cnc3c(N)nc(F)nc32)C[C@@H]1OC(=O)CN [Compound 14] |  |  | > 106000 µg/mL |  |  |  |  |
